Values of other authors as cited in patent US20040248232A1, “Method for treating Alzheimer's dementia” (priority 2003, published 2004).

Legend:
purified rat cathepsin L = purified rat cathepsin L (Rattus norvegicus, UniProt P07154); conditions: cited from earlier work
[1] = tested on: cancer induced osteoporosis; conditions: intravenous or p.o. administration, mice; cited from earlier work
cathepsin S [2] = biological target: T1, cathepsin S (Homo sapiens, UniProt P25774); conditions: at micromolar levels; cited from earlier work
T1 sequence (P25774 115-331, species assumed): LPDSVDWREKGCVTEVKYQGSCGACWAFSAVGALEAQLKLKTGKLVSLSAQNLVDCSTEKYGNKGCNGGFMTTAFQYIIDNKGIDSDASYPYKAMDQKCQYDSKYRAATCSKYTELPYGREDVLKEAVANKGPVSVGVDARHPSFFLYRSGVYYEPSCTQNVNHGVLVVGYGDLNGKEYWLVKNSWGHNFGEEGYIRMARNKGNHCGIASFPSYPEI

[3] = biological target: T2, cathepsin L activity in liver (Mus musculus, UniProt P06797); conditions: intraperitoneal injection, mice; cited from earlier work
T2 construct: host or cells: mouse liver (endogenous, in vivo dosing)
T2 sequence (P06797 114-334): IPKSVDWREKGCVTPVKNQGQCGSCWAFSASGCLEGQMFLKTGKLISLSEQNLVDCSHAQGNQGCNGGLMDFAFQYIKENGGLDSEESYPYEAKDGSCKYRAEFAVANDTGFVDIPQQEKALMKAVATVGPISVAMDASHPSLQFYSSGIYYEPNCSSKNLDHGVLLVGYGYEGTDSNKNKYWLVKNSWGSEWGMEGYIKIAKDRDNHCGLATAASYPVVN

cathepsin B activity = biological target: T3, cathepsin B activity (Mus musculus, UniProt P10605); conditions: intraperitoneal injection, mice; cited from earlier work
T3 construct: host or cells: mouse (liver implied by the sentence), endogenous, in vivo dosing
T3 sequence (P10605 80-333): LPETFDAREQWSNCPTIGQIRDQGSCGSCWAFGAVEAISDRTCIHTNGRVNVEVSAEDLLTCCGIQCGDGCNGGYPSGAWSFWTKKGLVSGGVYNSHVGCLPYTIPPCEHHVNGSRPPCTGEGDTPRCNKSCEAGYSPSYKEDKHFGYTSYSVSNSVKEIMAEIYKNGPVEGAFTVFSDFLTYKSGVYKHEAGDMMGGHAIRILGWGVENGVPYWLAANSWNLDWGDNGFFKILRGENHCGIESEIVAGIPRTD

cathepsin C = cathepsin C (Homo sapiens, UniProt P53634); conditions: at micromolar levels; cited from earlier work
Sequence of cathepsin C (P53634 25-463): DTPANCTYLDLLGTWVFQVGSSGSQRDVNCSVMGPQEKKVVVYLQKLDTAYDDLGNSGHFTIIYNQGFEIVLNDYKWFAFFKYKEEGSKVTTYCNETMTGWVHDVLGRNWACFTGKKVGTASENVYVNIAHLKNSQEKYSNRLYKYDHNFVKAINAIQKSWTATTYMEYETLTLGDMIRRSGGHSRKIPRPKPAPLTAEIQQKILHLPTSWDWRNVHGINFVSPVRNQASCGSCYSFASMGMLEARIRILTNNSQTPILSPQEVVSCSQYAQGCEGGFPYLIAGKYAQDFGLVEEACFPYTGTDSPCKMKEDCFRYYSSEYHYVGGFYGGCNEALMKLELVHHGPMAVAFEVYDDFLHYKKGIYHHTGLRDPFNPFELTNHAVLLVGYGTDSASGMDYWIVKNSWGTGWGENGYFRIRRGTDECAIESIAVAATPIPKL

cathepsin K = biological target: T4, cathepsin K (Homo sapiens, UniProt P43235); conditions: at micromolar levels; cited from earlier work
T4 sequence (P43235 115-329): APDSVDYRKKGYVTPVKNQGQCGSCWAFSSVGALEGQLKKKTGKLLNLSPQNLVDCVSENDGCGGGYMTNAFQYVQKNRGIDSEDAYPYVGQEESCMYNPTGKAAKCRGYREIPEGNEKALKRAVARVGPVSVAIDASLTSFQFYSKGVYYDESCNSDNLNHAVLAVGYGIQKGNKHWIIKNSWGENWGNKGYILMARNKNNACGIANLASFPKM

[4] = tested on: human melanoma cells A375; conditions: intravenous or p.o. administration, mice; cited from earlier work
purified rat cathepsin B = purified rat cathepsin B (Rattus norvegicus, UniProt P00787); conditions: at 10 uM; cited from earlier work
Sequence of purified rat cathepsin B (P00787 80-333): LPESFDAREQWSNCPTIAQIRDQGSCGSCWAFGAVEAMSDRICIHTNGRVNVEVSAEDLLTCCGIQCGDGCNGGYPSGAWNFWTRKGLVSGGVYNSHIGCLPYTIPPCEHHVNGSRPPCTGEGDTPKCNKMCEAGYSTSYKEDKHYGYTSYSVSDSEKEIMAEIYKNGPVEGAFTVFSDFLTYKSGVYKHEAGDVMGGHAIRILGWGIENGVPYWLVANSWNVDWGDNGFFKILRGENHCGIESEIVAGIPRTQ

Colon-26 cancer cells = conditions: intravenous or p.o. administration, mice; cited from earlier work
[5] = biological target: T5, cathepsin L activity in DLD-1 cells (Homo sapiens, UniProt P07711); conditions: cited from earlier work
T5 construct: host or cells: DLD-1 cells (endogenous)
T5 sequence (P07711 114-333): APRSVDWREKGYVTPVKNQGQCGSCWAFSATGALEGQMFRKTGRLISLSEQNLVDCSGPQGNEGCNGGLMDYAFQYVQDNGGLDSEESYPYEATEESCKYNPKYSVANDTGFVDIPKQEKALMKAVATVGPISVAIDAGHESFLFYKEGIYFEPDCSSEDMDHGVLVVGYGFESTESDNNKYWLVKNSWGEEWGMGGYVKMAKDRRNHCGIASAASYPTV

cathespin B = cathespin B (Homo sapiens, UniProt P07858); conditions: cited from earlier work
[6] = biological target: recombinant human cathepsin B (Homo sapiens, UniProt P07858); conditions: cited from earlier work
cathepsin S [7] = biological target: T1, cathepsin S; conditions: relative to recombinant human cathepsin B; cited from earlier work
cathepsin L = cathepsin L (Homo sapiens, UniProt P07711); conditions: relative to recombinant human cathepsin B; cited from earlier work
Sequence of cathepsin L (P07711 114-333, species assumed): as the sequence (P07711 114-333) above

Sequence of purified rat cathepsin L (P07154 114-334): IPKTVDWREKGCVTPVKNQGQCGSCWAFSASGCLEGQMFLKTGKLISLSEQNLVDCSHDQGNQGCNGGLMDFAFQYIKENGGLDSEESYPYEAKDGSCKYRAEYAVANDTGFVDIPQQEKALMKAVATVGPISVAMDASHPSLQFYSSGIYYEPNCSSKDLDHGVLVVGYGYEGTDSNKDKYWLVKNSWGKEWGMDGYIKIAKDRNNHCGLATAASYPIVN

CN(C)C(=O)[C@H](Cc1ccccc1)NC(=O)C1OC1C(=O)NCCc1ccccn1 (stereo in doubt) [CLIK-148]
inhibition of purified rat cathepsin L activity (purified rat cathepsin L; at 1 uM): completely inhibited
level at which purified rat cathepsin L activity is inhibited (purified rat cathepsin L): submicromolar levels
cancer induced osteoporosis [1]: blocked cancer induced osteoporosis
activity on cathepsin S (cathepsin S [2]): minimal activities
cathepsin L activity in liver [3]: dose dependently inhibited
cathepsin B activity (cathepsin B activity): no effect
activity on cathepsin C (cathepsin C): minimal activities
activity on cathepsin K (cathepsin K): minimal activities
bone metastasis of human melanoma cells A375 [4]: blocked bone metastasis
effect on purified rat cathepsin B activity (purified rat cathepsin B): no effect
bone metastasis of Colon-26 cancer cells (Colon-26 cancer cells): blocked bone metastasis

CC(C)C[C@H](NC(=O)[C@H]1CCCN1C#N)C(=O)OCc1ccccc1 [1-cyano-(D)-prolylleucine benzyl ester]
cathepsin L activity in DLD-1 cells [5]: completely inhibited
activity on cathespin B (cathespin B): minimal activity

Cc1cccc(C[C@H](NC(=O)c2ccc(F)cc2F)C(=O)N[C@@H](C#N)COCc2cccc(C(=O)O)c2)c1 [N-[2-[(3-Carboxyphenyl)methoxyl-1-(S)-cyanoethyl]-3-methyl-N-(2,4-difluorobenzoyl)-L-phenylalaninamide]
recombinant human cathepsin B activity [6]: inhibit
fold less potent in blocking cathepsin S than cathepsin B (cathepsin S [7]): approximately 100 fold
fold less potent in blocking cathepsin L than cathepsin B (cathepsin L): approximately 100 fold
